The text below walks through data of US20150250824A1, “METHODS AND COMPOSITIONS FOR EXPANSION OF STEM CELLS AND OTHER CELLS” (The Research Foundation For The State University Of New York, priority 2014, published 2015).

Entries after “also recorded” stand apart in the source; their conditions may differ. Where a name gives a salt, the structure may show the parent alone. Read-outs that look alike come from different tables or passages of the source.

The subject of series [1] is CD34+ cells isolated from peripheral blood of G-CSF-mobilized donors. The series can be described thus: Ex vivo culture of mobilized peripheral blood CD34+ cells with compounds, CD34/CD38 flow cytometry. The format is cell-based, human. As to conditions: 11 days, minimal cytokines; for effect on CD34+CD38+ and CD34+CD38− populations: C, 6, F at 10 μM, Z at 100 nM. The protocol: CD34+ cells were isolated from cord blood or from peripheral blood of G-CSF-mobilized adult donors and cultured as follows. Mononuclear cells (MNCs) were isolated using a simple red blood cell lysis (15 minutes at room temperature using BD PharmLyse) or using Ficoll-Paque density gradient centrifugation (Jaatinen and Laine, Current Protocols Stem Cell Biol. 1:2A.1.1-2A.1.4. (2007)). The cells were then incubated with MACS CD34+ Microbead kit (Miltenyi Biotec, Auburn, Calif.) and run through a magnetic column resulting in selection for CD34+ cells. […] Human cortex neural stem cell (hcx NSC) cells were purchased from Millipore.
(§1) CD34+ cells were cultured in […] medium ([…] Technologies, Vancouver, BC, Canada) supplemented with 10% FBS, 100 ng/ml hSCF (human stem cell factor), 100 ng/ml hTPO (human thrombopoietin), 100 ng/ml hFLT-3 ligand (Human Fms-related Tyrosine Kinase 3) (Peprotech, Rocky Hill, N.J., USA) and 100 U/ml penicillin/streptomycin (Gibco). Human cortex Neural Progenitor Cell line (hcx NSC) was maintained in ReNcell medium: ReNcell NSC Maintenance medium (Millipore) supplemented with 20 ng/ml human EGF, 20 ng/ml human bFGF (Peprotech) and 100 U/ml penicillin/streptomycin. For expansion of cells targeted for cell sorting, we used the same media containing a different cytokine cocktail of 100 ng/ml SCF, TPO and 10 ng/ml IL-3.
Cells were centrifuged for 5 minutes at 200 G at 4° C. Cells were resuspended with CD34, 38 and/or 41 conjugated antibodies for 30 minutes on ice. Cells were then washed with 2 ml of PBS and centrifuged for 5 minutes at 200 G at 4° C. The final pellet was resuspended using 300 μl of 2% formalin.
CD34+ cells isolated from peripheral blood of G-CSF-mobilized donors were cultured for 11 days with minimal cytokines and the 4 chemical cocktail (C6FZ). […] The population bearing CD34+/CD38− is associated with long-term repopulating HSCs.
CD34+ cells isolated from the peripheral blood of G-CSF-mobilized donors were next cultured for 11 days with minimal cytokines and the individual compounds, C, 6, F and Z (FIG. 13).
On the technique in general: Flow cytometry measures light scatter and fluorescence of single cells or particles in a stream.

The next series relates to human CB CD34+ cells. The series can be described thus: Ex vivo expansion of cord blood CD34+ cells in HSC media with small molecules. The conditions noted are these: for retention/expansion of CD34+CD38− stem/progenitor cells compared to control: 5 days, HSC media with SCF, TPO, Flt-3 ligand 100 ng/ml each, Z 100 nM, Bix 1 μM, T 10 μM. The format is cell-based. The protocol: as §1
Cells were centrifuged for 5 minutes at 200 G at 4° C. Cells were resuspended with CD34, 38 and/or 41 conjugated antibodies for 30 minutes on ice. Cells were then washed with 2 ml of PBS and centrifuged for 5 minutes at 200 G at 4° C. The final pellet was resuspended using 300 μl of 2% formalin. […]
Recent studies in iPS cell reprogramming have discovered numerous small molecules modulating iPS cell reprogramming through different cellular mechanisms. These could include cellular signaling pathways (such as Wnt signaling and TGF beta) and epigenetic mechanisms, such as DNA methyltransferases, histone methylation and histone deacetylation. We have screened small molecule modulators involving these cellular mechanisms for hematopoietic stem/progenitor cell expansion. […] CB CD34+ cells were cultured for 5 days in HSC media containing SCF, TPO, and Flt-3 ligand at 100 ng/ml each. […] Bix (BIX01294), trihydrochloride hydrate is a histone methyltransferase (HMTase) G9a inhibitor (FIG. 15).
Previously we have shown that stem cell protein is a robust stimulator for hematopoietic stem/progenitor cell expansion via recruitment of various epigenetic factors such as histone deacylases and DNA methyltransferases (Yang et al, J Biol Chem. 2012, 13; 287(3): 1996-2005). […] Based on this finding, we screened the LSD1 inhibitors for the expansion of hematopoietic precursor cells. hUCB CD34+ cells were cultured for 5 days in HSC media containing SCF, TPO, and Flt-3 ligand at 100 ng/ml each.

Series [2] deals with CD34+ cells isolated from human umbilical CB. The format is cell-based. The conditions noted are these: for number of large megakaryocytes / shortening of maturation compared to control: 4-5 day culture; for ploidy development compared to control or 616452 alone: 4 and 8 days induction; for CD41 population compared to control: 4 days of culture, flow analysis. As for the experimental part:
Megakaryocytes derived from CB in vitro are usually smaller than megakaryocytes derived from bone marrow or mobilized peripheral blood from adults. Small megakaryocyte size may contribute to delayed platelet engraftment when cord blood is used for bone marrow transplantation. To test whether 616452 is able to increase fetal/neonatal megakaryocyte size and ploidy, CD34+ cells isolated from human umbilical CB were cultured in StemSpan SFEM containing SCF, TPO and Flt-3 Ligand. CB CD34+ cells in the presence of TPO after 4 or 8 day culture, were morphologically consistent of a relative homogenous population of small cells (FIG. 19A) and megakaryocytic features such as large nuclear size and cytoplasmic mass were hardly detectable.
One of the unique characteristics of megakaryocytes is the ploidy development of their nuclei, which can be easily measured using propidium iodide (PI), a fluorescent intercalating agent that binds to nucleic acids. Megakaryocyte (Mk) ploidy correlates well with their maturation and platelet production. […] Out of 10,000 events, the control cells only elicited only 1 cell with a ploidy of 16N and nothing thereon greater (FIG. 20A).

Series [3] concerns hematopoietic stem/progenitor cells. The series can be described thus: Dose determination of BIX, Z and UNC on expansion of hematopoietic stem/progenitor cells. The format is cell-based. The conditions noted are these: at concentrations of 0.25×. An excerpt:
The inventors have also determined the dose for BIX, Z and UNC on the expansion of hematopoietic stem/progenitor cells. […] UNC (UNC0638) and BIX are quite similar in their impact of expansion of hematopoietic stem/progenitor cells.

In the next series the test system is eiNSCs. The series can be described thus: In vitro expansion of episome-derived induced neural stem cells (eiNSCs). The format is cell-based, human. As to conditions: added after the first passage in ReNcell medium. The protocol:
For reprogramming of CD34+ cells to iNSCs by an OCT4 episomal vector, the CD34+ cells were transduced with an EBNV1-based pCEP4-OCT4 expression plasmid in which the CMV promoter is replaced by the SFFV promoter. Cells were transduced by electroporation using the Human CD34 Cell NUCLEOFECTOR® Kit (Lonza, Koln, Germany). Post-transduction, cells were incubated with hypoxia (5% 02), following the lentivirus reprogramming strategy described above. Dzep (3-deazaneplanocin, Sigma) was added to the solution after the first passage in ReNcell medium to maintain the cells for a longer period before senescence/quiescence.
While direct reprogramming using lentivirus does provide an increasingly popular approach that bypasses the iPS cell state, the issue of random integration of foreign DNA into the host's genome still remains. We attempted to generate iNSCs from CB by an integration-free method. CB CD34^+ were electroporated with an episomal vector containing a high expression OCT4 gene. […] In addition, eiNSCs are able to differentiate into neural and glial cells as neuron and astrocyte markers were observed after random differentiation. However, eiNSCs are slower in growth rate with a doubling time of approximately 36 hours where iNSCs have a doubling time of approximately 24 hours. […]

Turning to `Cc1c[nH]c(-c2cnc(NCCNc3ccc(C#N)cn3)nc2-c2ccc(Cl)cc2Cl)n1` [CHIR99021, 6-[[2-[[4-(2,4-dichlorophenyl)-5-(5-methyl-1H-imidazol-2-yl)-2 pyrimidinyl]amino]ethyl]amino]-3-pyridinecarbonitrile], in series [1] (listed as C), the “effect on CD34+CD38+ and CD34+CD38− populations” value (“effect” for short) is “does not have much of effect; also recorded: did not have much of effect”; the “proliferation and maturation of CD34+ cells compared to control” value was “rapidly proliferates bone marrow CD34 cells leading to their maturation at a significantly rapid rate compared to control; also recorded: rapidly proliferated the bone marrow CD34+ cells, leading to their maturation at a significantly rapid rate compared to control”.
For `Cl.N[C@H]1C[C@@H]1c1ccccc1` (racemic) [T, (±)-trans-2-Phenylcyclopropylamine hydrochloride], in the series on human CB CD34+ cells (10 μM, 5 day culture), the “fold increase in CD34+CD38− cells compared to the input” value is “approximately 60 fold” and the “fold increase in total cell counts compared to the input” value is reported as about 45 fold. Also, the “retention/expansion of CD34+CD38− stem/progenitor cells compared to control” value (“retention/expansion … compared to control” for short) in the series on human CB CD34+ cells (hydrochloride) was “retained a significant fraction of CD34+CD38− cells and expanded this population; also recorded: promotes hematopoietic precursor immunophenotype and expands CD34+CD38− population”.
Take `NC(=O)c1ccc(-c2nc(-c3ccc4c(c3)OCO4)c(-c3ccccn3)[nH]2)cc1` [SB431542, 4-[4-(1,3-benzodioxol-5-yl)-5-(2-pyridinyl)-1H-imidazol-2-yl]benzamide]: in series [2], the “number of large megakaryocytes / shortening of maturation compared to control” value was “little or no effect”, the “ploidy development compared to control or 616452 alone” value is recorded as “no significant deviation in ploidy development” and the “CD41 population compared to control” value is “marginal decrease in the CD41 population”. Further, the “ploidy development compared to control or 616452 alone” value in series [2] (listed as SB431452) is listed as “no significant difference”.
Turning to `Cc1cccc(-c2nn(C(=S)Nc3ccccc3)cc2-c2ccnc3ccccc23)n1` [compound 616454, 3-(6-Methylpyridin-2-yl)-4-(4-quinolyl)-1-phenylthiocarbamoyl-1H-pyrazole], in series [2], the “number of large megakaryocytes / shortening of maturation compared to control” value is given as “little or no effect” and the “CD41 population compared to control” value is given as “no any significant difference from control”.
Turning to `COc1cc2c(NC3CCN(C(C)C)CC3)nc(C3CCCCC3)nc2cc1OCCCN1CCCC1` [UNC, 2-Cyclohexyl-6-methoxy-N-[1-(1-methylethyl)-4-piperidinyl]-7-[3-(1-pyrrolidinyl)propoxy]-4-quinazolinamine], the toxicity entry in series [3] is on record as “no significant toxicity”.
In the case of `C=C[C@@]1(C)CC(=O)[C@]2(O)[C@@]3(C)[C@@H](O)CCC(C)(C)[C@@H]3[C@H](O)[C@H](OC(C)=O)[C@@]2(C)O1` [F, 7β-acetoxy-8,13-epoxy-1α,6β,9α-trihydroxylabd-14-en-11-one], the “effect” value in series [1] is recorded as “induce a significant proportion of CD34+CD38+ population; also recorded: induce a significant proportion of CD34+CD38+ cells; also recorded: induced a significant expansion of CD34+CD38+”.
For `COc1cc2nc(N3CCCN(C)CC3)nc(NC3CCN(Cc4ccccc4)CC3)c2cc1OC` [Bix, 2-(Hexahydro-4-methyl-1H-1,4-diazepin-1-yl)-6,7-dimethoxy-N-[1-(phenylmethyl)-4-piperidinyl]-4-quinazolinamine trihydrochloride hydrate], the toxicity result in series [3] is recorded as “no significant toxicity”. For the same compound, in the series with human CB CD34+ cells (trihydrochloride hydrate), the “retention/expansion … compared to control” value is “retained a large portion of CD34+CD38− stem/progenitor cells; also recorded: enhances retention and expansion of CD34+CD38-population”.
Take `Nc1nccc2c1ncn2[C@@H]1C=C(CO)[C@@H](O)[C@H]1O` [Z, 5R-(4-amino-1H-imidazo[4,5-c]pyridin-1-yl)-3-(hydroxymethyl)-3-cyclopentene-1S,2R-diol]: in series [1], the “effect” value was “best effect enhancing both CD34+CD38- and CD34+ and CD38+ positive cells; also recorded: ability to enhance both the population of single positive (CD34+CD38−) and double positive (CD34+CD38+) cells; also recorded: the most effects on the CD34+CD38− population”. Further, in series [3], the toxicity result is listed as “no significant toxicity”. The “additional passages of eiNSC growth” value in the series on eiNSCs is recorded as “two”. For the same compound, the “retention/expansion … compared to control” value with human CB CD34+ cells is “retained a large portion of CD34+CD38− stem/progenitor cells; also recorded: enhances retention and expansion of CD34+CD38-population; also recorded: promotes hematopoietic precursor immunophenotype and expands CD34+CD38− population”.
